Test: Log P by HPLC on reversed phase columns (EEC directive 79/831 Annex V.A8)
Format: physicochemical
Conditions: method [a]: LC-UV, acidic range, 0.1% formic acid in water and acetonitrile
Experimental: Measurement of Log P values was performed according to EEC directive 79/831 Annex V.A8 by HPLC (High Performance Liquid Chromatography) on reversed phase columns with the following method: • [^a] Log P value is determined by measurement of LC-UV, in an acidic range, with 0.1% formic acid in water and acetonitrile as eluent (linear gradient from 10% acetonitrile to 95% acetonitrile). Calibration was done with straight-chain alkan2-ones (with 3 to 16 carbon atoms) with known Log P values (measurement of Log P values using retention times with linear interpolation between successive alkanones). Lambda-max-values were determined using UV-spectra from 200 nm to 400 nm and the peak values of the chromatographic signals.

| SMILES | LogP (Table 1) | LogP (Table 2 (amines III-a)) |
| --- | --- | --- |
| CCC1(CC)Cc2c(NC(=O)c3c(C(F)F)nn(C)c3Cl)cccc21 [Example I-04] | 4.36^[a] |  |
| CC(C)C1Cc2c(NC(=O)c3c(C(F)F)nn(C)c3Cl)cccc21 (centres unmarked) [Example I-16] | 4.06^[a] |  |
| O=C(Nc1cccc2c1CC21CCCCC1)c1cccnc1C(F)F [Example I-17] | 3.80^[a] |  |
| Cn1nc(C(F)F)c(C(=O)Nc2cccc3c2CC32CCCCC2)c1F [Example I-18] | 4.31^[a] |  |
| CCC1(C)Cc2c(NC(=O)c3cccnc3C(F)F)cccc21 (centres unmarked) [Example I-05] | 3.31^[a] |  |
| CCC1(C)Cc2c(N)cccc21 (centres unmarked) [III-a-6] |  | 1.82^[a] |
| CC(C)C1Cc2c(NC(=O)c3cccnc3C(F)F)cccc21 (centres unmarked) [Example I-06] | 3.39^[a] |  |
| Cc1nn(C)c(F)c1C(=O)Nc1cccc2c1CC21CCCCC1 [Example I-10] | 3.87^[a] |  |
| CC(C)C1Cc2c(NC(=O)c3cn(C)nc3C(F)F)cccc21 (centres unmarked) [Example I-20] | 3.50^[a] |  |
| Nc1cccc2c1CC21CCCCC1 [III-a-7] |  | 2.37^[a] |
| CCC1(CC)Cc2c(NC(=O)c3c(C(F)F)nn(C)c3F)cccc21 [Example I-14] | 4.11^[a] |  |
| Nc1cccc2c1CC21CCCC1 [III-a-1] |  | 2.03^[a] |
| O=C(Nc1cccc2c1CC21CCCC1)c1cccnc1C(F)F [Example I-09] | 3.46^[a] |  |
| Cn1nc(C(F)F)c(C(=O)Nc2cccc3c2CC32CCCC2)c1F [Example I-02] | 3.90[a] |  |
| CC1Cc2c(N)cccc21 (centres unmarked) [III-a-3] |  | 0.87^[a] |
| O=C(Nc1cccc2c1CC2c1ccccc1)c1cccnc1C(F)F (centres unmarked) [Example I-19] | 3.06^[a] |  |
| Cn1nc(C(F)F)c(C(=O)Nc2cccc3c2CC32CCCCC2)c1Cl [Example I-07] | 4.56^[a] |  |
| CC1Cc2c(NC(=O)c3c(C(F)F)nn(C)c3F)cccc21 (centres unmarked) [Example I-15] | 3.02^[a] |  |
| Cn1cc(C(=O)Nc2cccc3c2CC32CCCCC2)c(C(F)F)n1 [Example I-08] | 3.94^[a] |  |
| Cn1nc(C(F)F)c(C(=O)Nc2cccc3c2CC3c2ccccc2)c1Cl (centres unmarked) [Example I-11] | 3.71^[a] |  |
| Cn1cc(C(=O)Nc2cccc3c2CC3c2ccccc2)c(C(F)F)n1 (centres unmarked) [Example I-01] | 3.20^[a] |  |
| CC1(C)Cc2c(N)cccc21 [III-a-5] |  | 1.36^[a] |
| CCC1(CC)Cc2c(N)cccc21 [III-a-2] |  | 2.32^[a] |
| Nc1cccc2c1CC2c1ccccc1 (centres unmarked) [III-a-8] |  | 2.20^[a] |
| Cn1cc(C(=O)Nc2cccc3c2CC32CCCC2)c(C(F)F)n1 [Example I-03] | 3.59^[a] |  |
| CC(C)C1Cc2c(N)cccc21 (centres unmarked) [III-a-4] |  | 1.90^[a] |
| Cn1nc(C(F)F)c(C(=O)Nc2cccc3c2CC32CCCC2)c1Cl [Example I-21] | 4.14^[a] |  |
| CCC1(C)Cc2c(NC(=O)c3cn(C)nc3C(F)F)cccc21 (centres unmarked) [Example I-13] | 3.44^[a] |  |
| CCC1(C)Cc2c(NC(=O)c3c(C(F)F)nn(C)c3Cl)cccc21 (centres unmarked) [Example I-12] | 3.96^[a] |  |
